Data reported in PMC5522529, “Mechanisms of Paradoxical Activation of AMPK by the Kinase Inhibitors SU6656 and Sorafenib” (Cell Chemical Biology, 2017).

How the values were obtained:
Details in all cases: 1 hr
AMPK = AMPK activity and Thr172 phosphorylation in HEK293 cells; type: cell-based, human
Protocol: Figure 1 SU6656 Activates AMPK but Not AMPK-Related Kinases (A) HEK293 cells were incubated with the indicated concentrations of SU6656 or berberine (300 μM) for 1 hr; total AMPK activity was assayed in immunoprecipitates (top; mean ± SEM, n = 4), and phosphorylation of AMPK (Thr172), ACC (Ser80), and Raptor (Ser792) analyzed by western blotting (bottom; n = 2). (B) HEK293 cells were incubated with 100 μM SU6656 (1 hr), AMPK complexes containing α1, α2, β1, and β2 immunoprecipitated using isoform-specific antibodies, and AMPK activity measured (mean ± SEM, n = 4). (C) HeLa cells stably expressing LKB1 ([Fogarty et al., 2010]) were incubated with 100 μM SU6656 for 1 hr, AMPK or individual ARKs immunoprecipitated, and kinase assays carried out (antibodies that distinguish MARK2/MARK3 were not available, so they were assayed together). Results are means ± SEM (n = 2). In all panels, asterisks indicate significant differences from controls without SU6656. *p < 0.05, **p < 0.01, ****p < 0.0001. […]
Endogenous AMPK was immunoprecipitated using the specified antibodies (for total AMPK, an equal mixture of anti-α1 and –α2 antibodies) and assayed at 200 μM ATP ([Hardie et al., 2000], [Towler et al., 2008]) using the AMARA peptide ([Dale et al., 1995]) as substrate, except for assays of allosteric activation by AMP (Figure 5A) where the SAMS peptide was used as substrate with 2 mM ATP ([Gowans et al., 2013]). The AMPK-related kinases SIK1, SIK2, SIK3, SNARK, MARK2/3 and MARK4 were immunoprecipitated and assayed as previously described ([Lizcano et al., 2004]) in lysates of Hela cells stably expressing LKB1 ([Fogarty et al., 2010]). LKB1 was assayed using the LKBtide peptide as substrate ([Sakamoto et al., 2004]).

[1] = molecular target: T1, endogenous full-length α1 complexes (Homo sapiens, UniProt Q13131); test: Activity of endogenous full-length α1 complexes in HEK293 cells; type: cell-based
T1 construct: endogenous in cells
Excerpt: We next expressed an FLAG-tagged α1 kinase domain (α1-KD, residues 1–312) by transient transfection in HEK293 cells, treated the cells with various AMPK activators, and then assayed both the expressed α1-KD (precipitated using anti-FLAG) and endogenous full-length α1 complexes (precipitated using anti-α1 antibodies recognizing an epitope outside the α1-KD). […] This was also observed with A23187, as expected since this ionophore increases intracellular Ca^2+ and activates the alternate upstream kinase CaMKK2.
The α1-KD was precipitated using anti-FLAG and endogenous AMPK complexes using anti-α1 antibody, and activity determined. Results (mean ± SD, n = 2) are expressed relative to activities in DMSO controls. (B) Western blots (n = 2) using the indicated antibodies; samples from experiment in (A). (C) DNAs encoding FLAG-tagged AMPK-α1 (WT or AT mutant) were expressed by transient transfection in HEK293 cells, the cells treated with increasing concentrations of SU6656 for 1 hr, AMPK complexes precipitated with anti-FLAG, and activity measured. Results (mean ± SD, n = 3) are expressed relative to the DMSO control. […] Results (mean ± SD, n = 3) are expressed relative to the DMSO control. **p < 0.01, ***p < 0.001, ****p < 0.0001, ^†††p < 0.001; ns, not significant.

HEK293 cells = test: Cellular AMP:ATP and ADP:ATP ratios; type: cell-based, human
Protocol: (B) WT or RG cells were treated as in (A) and nucleotides extracted for analysis (mean ± SD, n = 3). […] (E) (See also Figure S2) Time courses of cellular oxygen uptake before and after addition of the indicated concentrations of sorafenib (SO, μM), SU6656 (100 μM) or phenformin (PHEN, 10 mM) (mean ± SEM, n = 4). (F) Effect of various concentrations of sorafenib or phenformin (10 mM) on activation (top, mean ± SEM, n = 3) or phosphorylation (bottom) of AMPK in cells expressing wild-type AMPK-γ2 (WT) or the R531G mutant AMPK-γ2 (RG). In all panels, asterisks show significant differences from DMSO controls (ns, not significant). In (B), daggers (†) show significant differences between results in WT and RG cells. *p < 0.05, **p < 0.01, ***p < 0.001, ****p < 0.0001, ^††††p < 0.0001.
Cells were incubated for 60 min and AMPK activity measured; results in the top panel are means ± SEM (n = 8), with significant differences from the DMSO control indicated (ns, not significant). The bottom panels show western blots from the same experiment (n = 2). (B) Analysis of AMP:ATP and ADP:ATP ratios from a parallel experiment to that in (A). Results are means ± SEM (n = 3), with significant differences from the DMSO control indicated. *p < 0.05, **p < 0.01, ****p < 0.0001.
The levels of AMP, ADP and ATP were measured using a TSQ Quantiva interfaced with Ultimate 3000 Liquid Chromatography system (ThermoScientific), equipped with a porous graphitic carbon column (HyperCarb 30x1mm ID 3 μm; Part No: C-35003-031030, Thermo-Scientific). Mobile phase buffer A consisted of 0.3% (v/v) formic acid adjusted to pH 9 with ammonia prior to a 1:10 dilution. Mobile phase buffer B was 80% (v/v) acetonitrile. The column was maintained at a controlled temperature of 30°C and was equilibrated with 10% buffer B for 5 minutes at a constant flow rate of 0.06 mL/min. Aliquots of 1 μL of each sample were loaded onto the column and compounds eluted with a linear gradient of 10%-60% buffer B over 9 min. Buffer B was then increased to 100% within 1 min, and the column washed for 5 min with 100% Buffer B. Eluents were sprayed into the TSQ Quantiva using Ion Max NG ion source with ion transfer tube temperature set to 350°C and vaporizer temperature 125°C. The TSQ Quantiva was run in negative mode with a spray voltage of 2600, sheath gas 40 and Aux gas 10. Levels of ATP, ADP and AMP were measured using multiple reactions monitoring mode (MRM) with optimised collision energies and radio frequencies previously determined by infusing pure compounds. Three transitions were used to monitor each of the three compounds, ATP (505.92>158.98, 505.92>408.12 and 505.92>426.12), ADP (426.98>158.98, 426.98>328.78 and 426.98>409.09) and AMP (345.96>134.20, 345.96>151.27 and 345.96>211.12).

T1 sequence (Q13131 whole entry): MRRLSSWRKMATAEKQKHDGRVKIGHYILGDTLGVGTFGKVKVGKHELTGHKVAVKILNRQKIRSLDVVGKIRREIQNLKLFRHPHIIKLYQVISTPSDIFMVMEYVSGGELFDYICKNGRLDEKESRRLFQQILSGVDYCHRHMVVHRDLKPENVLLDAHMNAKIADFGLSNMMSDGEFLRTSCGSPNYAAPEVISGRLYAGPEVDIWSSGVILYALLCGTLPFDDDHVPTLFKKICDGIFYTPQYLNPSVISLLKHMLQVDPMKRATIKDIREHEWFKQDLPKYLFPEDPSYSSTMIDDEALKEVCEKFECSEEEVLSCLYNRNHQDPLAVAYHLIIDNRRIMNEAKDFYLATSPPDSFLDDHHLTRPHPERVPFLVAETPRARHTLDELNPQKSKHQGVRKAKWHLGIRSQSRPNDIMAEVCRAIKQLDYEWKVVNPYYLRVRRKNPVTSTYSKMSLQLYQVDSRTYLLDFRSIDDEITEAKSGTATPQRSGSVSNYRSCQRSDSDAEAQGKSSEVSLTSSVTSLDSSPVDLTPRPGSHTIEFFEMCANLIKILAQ
T1 sequence (P54619 whole entry partner): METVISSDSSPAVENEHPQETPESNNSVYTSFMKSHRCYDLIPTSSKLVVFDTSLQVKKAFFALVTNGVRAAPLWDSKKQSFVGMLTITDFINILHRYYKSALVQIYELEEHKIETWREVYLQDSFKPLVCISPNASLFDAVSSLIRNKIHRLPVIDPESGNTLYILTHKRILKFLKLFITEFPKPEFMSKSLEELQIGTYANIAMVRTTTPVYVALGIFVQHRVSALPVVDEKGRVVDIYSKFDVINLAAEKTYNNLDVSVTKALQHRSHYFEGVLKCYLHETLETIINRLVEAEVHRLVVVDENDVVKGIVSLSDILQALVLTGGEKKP

kinase activity / Thr172 phosphorylation [1] | SMILES | activation of AMPK complexes by subunit isoform (AMPK; 100 μM, isoform-specific antibodies) | AMPK activity / Thr172 phosphorylation (AMPK) | cellular AMP:ATP and ADP:ATP ratios (HEK293 cells)
increased kinase activity | CN(C)S(=O)(=O)c1ccc2c(c1)/C(=C/c1cc3c([nH]1)CCCC3)C(=O)N2 [SU6656] | activate AMPK complexes containing the α1, α2, β1, and β2 subunit isoforms | caused activation of AMPK | no significant effects
– | CNC(=O)c1cc(Oc2ccc(NC(=O)Nc3ccc(Cl)c(C(F)(F)F)c3)cc2)ccn1 [sorafenib] | – | activated AMPK | increased cellular AMP:ATP and ADP:ATP ratios to a similar or even greater extent than phenformin
doing this with the endogenous complexes | COc1ccc2cc3[n+](cc2c1OC)CCc1cc2c(cc1-3)OCO2 [berberine] | – | much smaller degree of AMPK activation | robustly increased
